Laboratory results from ChEMBL document CHEMBL5385906, “Discovery of a Potent, Selective, and Orally Bioavailable Tool Compound for Probing the Role of Lysophosphatidic Acid Type 2 Receptor Antagonists in Fibrotic Disorders” (J Med Chem, 2023).
One block for each molecule: values may come before it.

Tests used:
[1] = target: Lysophosphatidic acid receptor 2 (Homo sapiens, UniProt Q9HBW0)
Description: Antagonist activity at human LPA2 receptor expressed in CHO cells assessed as inhibition of LPA-induced calcium mobilization pretreated for 15 mins followed by LPA stimulation by FLIPR analysis

[2] = target: Lysophosphatidic acid receptor 2 (Mus musculus, UniProt Q9JL06); experiment: Antagonist activity at mouse LPA2 receptor expressed in HeLa cells assessed as inhibition of LPA-induced calcium mobilization pretreated for 15 mins followed by LPA stimulation by FLIPR analysis; assay type: functional, cell-based
[3] = Efflux ratio of apparent permeability across apical to basolateral to basolateral to apical side in human Caco-2 cells at 10 uM measured after 60 mins by LC-MS/MS analysis
[4] = Oral absorption in C57BL/6J mouse at 30 mg/kg by LC-MS/MS analysis; conditions: in vivo
[5] = Protein binding in human plasma assessed as fraction unbound at 0.5 uM measured after 5 hrs by LC-MS/MS analysis
[6] = in vivo; conditions: C57BL/6J, mouse, lung, po, 30 mg/kg
[7] = Apparent permeability across basolateral to apical side in human Caco-2 cells at 10 uM measured after 60 mins by LC-MS/MS analysis
[8] = in vivo; conditions: C57BL/6J, mouse, plasma, po, 30 mg/kg
[9] = in vivo; conditions: C57BL/6J, mouse, lung, po, 30 mg/kg; remark: listed apart in the source
[10] = Apparent permeability across apical to basolateral side in human Caco-2 cells at 10 uM measured after 60 mins by LC-MS/MS analysis
[11] = Protein binding in mouse lungs assessed as fraction unbound at 5 uM measured after 5 hrs by LC-MS/MS analysis
[12] = in vitro; conditions: human, liver microsomes, CLH
Description: Intrinsic clearance in human liver microsomes at 0.5 uM in presence of NADPH regenerating system measured for 45 mins per mg protein by LC-MS/MS analysis

[13] = in vivo; conditions: C57BL/6J, mouse, po, 30 mg/kg
[14] = in vitro; conditions: C57BL/6J, mouse, liver microsomes
Description: Intrinsic clearance in C57BL/6J mouse liver microsomes at 0.5 uM in presence of NADPH regenerating system measured for 45 mins per mg protein by LC-MS/MS analysis

[15] = Half life in C57BL/6J mouse at 30 mg/kg, po and 2 mg/kg, iv by LC-MS/MS analysis; conditions: in vivo
[16] = target: Lysophosphatidic acid receptor 1 (Homo sapiens, UniProt Q92633)
Description: Antagonist activity at human LPA1 receptor expressed in CHO cells assessed as inhibition of LPA-induced calcium mobilization pretreated for 15 mins followed by LPA stimulation by FLIPR analysis

[17] = Protein binding in mouse plasma assessed as fraction unbound at 0.5 uM measured after 5 hrs by LC-MS/MS analysis
[18] = in vivo; conditions: C57BL/6J, mouse, plasma, po, 30 mg/kg; remark: listed apart in the source

Sequence of Lysophosphatidic acid receptor 1 (Q92633 whole entry): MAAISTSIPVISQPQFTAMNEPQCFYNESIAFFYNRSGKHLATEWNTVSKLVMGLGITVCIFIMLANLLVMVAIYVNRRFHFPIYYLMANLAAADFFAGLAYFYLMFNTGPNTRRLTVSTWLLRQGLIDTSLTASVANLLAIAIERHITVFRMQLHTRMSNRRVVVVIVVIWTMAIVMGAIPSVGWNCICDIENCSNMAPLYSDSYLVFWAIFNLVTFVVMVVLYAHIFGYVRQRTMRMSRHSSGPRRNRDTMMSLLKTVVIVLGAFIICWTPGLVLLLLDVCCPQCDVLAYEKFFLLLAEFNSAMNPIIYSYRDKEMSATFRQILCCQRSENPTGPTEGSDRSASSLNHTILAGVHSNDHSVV
Sequence of Lysophosphatidic acid receptor 2 (Homo sapiens, UniProt Q9HBW0) (Q9HBW0 whole entry): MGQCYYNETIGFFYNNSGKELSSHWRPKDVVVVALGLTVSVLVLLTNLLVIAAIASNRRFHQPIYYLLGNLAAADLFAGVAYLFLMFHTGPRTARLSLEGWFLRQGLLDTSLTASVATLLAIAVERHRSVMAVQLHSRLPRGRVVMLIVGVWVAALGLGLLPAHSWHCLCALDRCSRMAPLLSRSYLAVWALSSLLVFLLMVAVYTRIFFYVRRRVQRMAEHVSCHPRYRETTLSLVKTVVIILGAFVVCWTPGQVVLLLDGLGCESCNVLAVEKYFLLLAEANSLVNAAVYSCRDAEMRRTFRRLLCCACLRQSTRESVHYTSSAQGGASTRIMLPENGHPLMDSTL
Sequence of Lysophosphatidic acid receptor 2 (Mus musculus, UniProt Q9JL06) (Q9JL06 whole entry): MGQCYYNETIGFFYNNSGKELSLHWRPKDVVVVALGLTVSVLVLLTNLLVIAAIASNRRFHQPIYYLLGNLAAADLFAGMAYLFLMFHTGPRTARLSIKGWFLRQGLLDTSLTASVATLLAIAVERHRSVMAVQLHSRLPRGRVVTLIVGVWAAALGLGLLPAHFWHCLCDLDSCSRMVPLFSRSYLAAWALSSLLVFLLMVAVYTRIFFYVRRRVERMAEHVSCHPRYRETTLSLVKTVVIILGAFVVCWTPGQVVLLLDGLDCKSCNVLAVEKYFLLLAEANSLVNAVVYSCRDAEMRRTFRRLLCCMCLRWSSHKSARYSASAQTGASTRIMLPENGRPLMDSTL

SMILES: Cc1csc2c(N[C@@H](C)CN3CCC(NS(=O)(=O)c4ccc(Cl)c(Cl)c4)CC3)ncnc12
IC50 [1]: 6.61 µM

SMILES: Cc1noc(-c2ccc(S(=O)(=O)N3CCN(C[C@H](C)Nc4ncnc5c(C)csc45)CC3)s2)c1C
IC50 [1]: 0.0437 µM

SMILES: Cc1csc2c(NC(C)CN3CCN(S(=O)(=O)c4ccc(Cl)c(Cl)c4)CC3)cccc12 (racemic)
IC50 [1]: > 50.1 µM

SMILES: COC(=O)Nc1nc(C)c(S(=O)(=O)N2CCN(C[C@H](C)Nc3ncnc4c(-c5c(C)noc5C)cccc34)CC2)s1
efflux ratio at 1 h, 10 µM [3]: 6.3 | IC50 [1]: 0.000759 µM | Fa [4]: 96% | fraction unbound at 5 h, 0.5 µM [5]: < 0.01 | Cmax [6]: 15100 ng/mL | Papp B→A at 1 h, 10 µM [7]: 9.29 ×10⁻⁶ cm/s | Cmax [8]: 76200 ng/mL | AUC(0-t) [9]: 25800 ng·h/mL | Papp A→B at 1 h, 10 µM [10]: 1.47 ×10⁻⁶ cm/s | fraction unbound at 5 h, 5 µM [11]: 0.0185 | microsomal CLint at 0.75 h, 0.5 µM [12]: 89 µL/min/mg | IC50 ([2]; read-out: pIC50 (converted)): 0.0282 µM | bioavailability [13]: 92% | microsomal CLint at 0.75 h, 0.5 µM [14]: 94 µL/min/mg | half-life [15]: 1.32 h | IC50 [16]: > 50.1 µM | fraction unbound at 5 h, 0.5 µM [17]: 0.0043 | AUC(0-t) [18]: 124000 ng·h/mL

SMILES: C[C@@H](CN1CCN(S(=O)(=O)c2ccc(Cl)c(Cl)c2)CC1)Nc1ncnc2cnn(C)c12
IC50 [1]: 17.4 µM

SMILES: Cc1csc2c(N3CCC[C@H]3CN3CCN(S(=O)(=O)c4ccc(Cl)c(Cl)c4)CC3)ncnc12
IC50 [1]: 30.2 µM

SMILES: CC(=O)Nc1ccc(S(=O)(=O)N2CCN(C[C@H](C)Nc3ncnc4c(C)csc34)CC2)cn1
IC50 [1]: 13.8 µM | IC50 [16]: > 50.1 µM

SMILES: CC(=O)Nc1ncc(S(=O)(=O)N2CCN(C[C@H](C)Nc3ncnc4c(C)csc34)CC2)s1
IC50 [1]: 4.57 µM

SMILES: CC(CN1CCN(S(=O)(=O)c2ccc(Cl)c(Cl)c2)CC1)Nc1ncnc2c1ncn2C (racemic)
IC50 [1]: 19.1 µM | IC50 [16]: 20.4 µM

SMILES: COC(=O)Nc1nc(C)c(S(=O)(=O)N2CCN(C[C@H](C)Nc3ncnc4c(-c5sc(C)nc5C)cccc34)CC2)s1
efflux ratio at 1 h, 10 µM [3]: 0.6 | IC50 [1]: 0.000251 µM | Fa [4]: 76% | fraction unbound at 5 h, 0.5 µM [5]: 0.0002 | Cmax [6]: 19900 ng/mL | Papp B→A at 1 h, 10 µM [7]: 5.39 ×10⁻⁶ cm/s | Cmax [8]: 72300 ng/mL | AUC(0-t) [9]: 56200 ng·h/mL | Papp A→B at 1 h, 10 µM [10]: 9.2 ×10⁻⁶ cm/s | fraction unbound at 5 h, 5 µM [11]: 0.022 | microsomal CLint at 0.75 h, 0.5 µM [12]: 15 µL/min/mg | IC50 ([2]; read-out: pIC50 (converted)): 0.00692 µM | bioavailability [13]: 64% | microsomal CLint at 0.75 h, 0.5 µM [14]: 15 µL/min/mg | half-life [15]: 1.88 h | IC50 [16]: > 0.501 µM | fraction unbound at 5 h, 0.5 µM [17]: 0.0372 | AUC(0-t) [18]: 230000 ng·h/mL

SMILES: COC(=O)Nc1nc(C)c(S(=O)(=O)N2CCN(C[C@H](C)Nc3ncnc4c(-c5cccnc5C)cccc34)CC2)s1
efflux ratio at 1 h, 10 µM [3]: 2.7 | IC50 [1]: 0.000447 µM | Fa [4]: 76% | Cmax [6]: 8450 ng/mL | Papp B→A at 1 h, 10 µM [7]: 11.2 ×10⁻⁶ cm/s | Cmax [8]: 81200 ng/mL | AUC(0-t) [9]: 24300 ng·h/mL | Papp A→B at 1 h, 10 µM [10]: 4.17 ×10⁻⁶ cm/s | fraction unbound at 5 h, 5 µM [11]: 0.0531 | microsomal CLint at 0.75 h, 0.5 µM [12]: 21 µL/min/mg | IC50 ([2]; read-out: pIC50 (converted)): 0.00646 µM | bioavailability [13]: 67% | microsomal CLint at 0.75 h, 0.5 µM [14]: 13 µL/min/mg | half-life [15]: 1.74 h | IC50 [16]: > 50.1 µM | fraction unbound at 5 h, 0.5 µM [17]: 0.0616 | AUC(0-t) [18]: 163000 ng·h/mL

SMILES: COC(=O)Nc1nc(C)c(S(=O)(=O)N2CCN(C[C@H](C)Nc3ncnc4c(-c5cccc(CN6CCCC6)c5)cccc34)CC2)s1
efflux ratio at 1 h, 10 µM [3]: 98.1 | IC50 [1]: 0.000282 µM | Fa [4]: 9% | fraction unbound at 5 h, 0.5 µM [5]: < 0.01 | Cmax [6]: 2680 ng/mL | Papp B→A at 1 h, 10 µM [7]: 8.95 ×10⁻⁶ cm/s | Cmax [8]: 4230 ng/mL | AUC(0-t) [9]: 19500 ng·h/mL | Papp A→B at 1 h, 10 µM [10]: 0.09 ×10⁻⁶ cm/s | fraction unbound at 5 h, 5 µM [11]: 0.0187 | microsomal CLint at 0.75 h, 0.5 µM [12]: 104 µL/min/mg | IC50 ([2]; read-out: pIC50 (converted)): 0.00457 µM | bioavailability [13]: 7% | microsomal CLint at 0.75 h, 0.5 µM [14]: 133 µL/min/mg | half-life [15]: 2.45 h | IC50 [16]: > 50.1 µM | fraction unbound at 5 h, 0.5 µM [17]: 0.0059 | AUC(0-t) [18]: 12900 ng·h/mL

SMILES: COC(=O)Nc1nc(C)c(S(=O)(=O)N2CCN(C[C@H](C)Nc3ncnc4c(-c5ccc(F)c(CN(C)C)c5)cccc34)CC2)s1
IC50 ([2]; read-out: IC50): 0.00646 µM | IC50 [16]: > 50.1 µM

Second part, the molecule after the results:

IC50 ([2]; read-out: pIC50 (converted)): 3.98 µM
SMILES: COC(=O)Nc1nc(C)c(S(=O)(=O)N2CCN(C[C@H](C)Nc3ncnc4c(C(=O)N(C)C)cccc34)CC2)s1

IC50 [1]: 0.00575 µM
SMILES: Cc1noc(-c2ccc(S(=O)(=O)N3CCN(C[C@H](C)Nc4ncnc5c(C(F)(F)F)cccc45)CC3)s2)c1C

IC50 [1]: 15.8 µM
SMILES: C[C@@H](CN1CCN(S(=O)(=O)c2ccc(Cl)c(Cl)c2)CC1)Nc1ncnc2cc[nH]c12

efflux ratio at 1 h, 10 µM [3]: 60 | IC50 [1]: 0.000331 µM | Fa [4]: 17% | fraction unbound at 5 h, 0.5 µM [5]: 0.0003 | Cmax [6]: 7030 ng/mL | Papp B→A at 1 h, 10 µM [7]: 10.6 ×10⁻⁶ cm/s | Cmax [8]: 12100 ng/mL | AUC(0-t) [9]: 43200 ng·h/mL | Papp A→B at 1 h, 10 µM [10]: 0.18 ×10⁻⁶ cm/s | fraction unbound at 5 h, 5 µM [11]: 0.0177 | microsomal CLint at 0.75 h, 0.5 µM [12]: 38 µL/min/mg | IC50 ([2]; read-out: pIC50 (converted)): 0.00479 µM | bioavailability [13]: 16% | microsomal CLint at 0.75 h, 0.5 µM [14]: 108 µL/min/mg | half-life [15]: 2.6 h | IC50 [16]: > 50.1 µM | fraction unbound at 5 h, 0.5 µM [17]: 0.0124 | AUC(0-t) [18]: 34200 ng·h/mL
SMILES: COC(=O)Nc1nc(C)c(S(=O)(=O)N2CCN(C[C@H](C)Nc3ncnc4c(-c5cccc(CN(C)C)c5)cccc34)CC2)s1

IC50 [1]: 17 µM
SMILES: Cc1csc2c(N[C@@H](C)CNC3CCN(S(=O)(=O)c4ccc(Cl)c(Cl)c4)CC3)ncnc12

IC50 [1]: 14.5 µM
SMILES: Cc1csc2c(NCC(C)N3CCN(S(=O)(=O)c4ccc(Cl)c(Cl)c4)CC3)ncnc12 (stereo in doubt; 6a)

IC50 [16]: 21.9 µM
SMILES: CC(CN1CCN(S(=O)(=O)c2ccc(Cl)c(Cl)c2)CC1)Nc1ccncn1 (racemic)

IC50 [1]: 11.2 µM
SMILES: Cc1csc2c(N[C@@H](C)CN3CCN(S(=O)(=O)c4ccccc4)CC3)ncnc12

IC50 [1]: 18.2 µM
SMILES: C[C@@H](CN1CCN(S(=O)(=O)c2ccc(Cl)c(Cl)c2)CC1)Nc1ncnc2cc(C(F)(F)F)ccc12
